Literature values in patent US11147926B2, “Intrathecal baclofen pharmaceutical dosage forms and related delivery system” (PIRAMAL CRITICAL CARE, INC., priority 2008, dated 2021).

What was measured:
[1] = injected into the intrathecal space of a patient, at effective CSF concentrations, versus oral

- solubility in chloroform (chloroform): insoluble
- solubility in methanol (methanol): very slightly soluble
- solubility in water (water): slightly soluble
- plasma concentrations, times less than with oral administration [1]: 100 times
SMILES: NCC(CC(=O)O)c1ccc(Cl)cc1 (stereo not shown) [Baclofen, 4-amino-3-(p-chlorophenyl)butyric acid]
